This is an account of results in patent US7687535B2, “Substituted 3-sulfur indoles” (AstraZeneca AB, priority 2003, dated 2010).

One series deals with T1, rhCRTh2 (Homo sapiens, UniProt Q9Y5Y4).
T1 construct: expressed in transfected cells; host or cells: HEK cells (membrane preparation)
T1 sequence (Q9Y5Y4 1-395): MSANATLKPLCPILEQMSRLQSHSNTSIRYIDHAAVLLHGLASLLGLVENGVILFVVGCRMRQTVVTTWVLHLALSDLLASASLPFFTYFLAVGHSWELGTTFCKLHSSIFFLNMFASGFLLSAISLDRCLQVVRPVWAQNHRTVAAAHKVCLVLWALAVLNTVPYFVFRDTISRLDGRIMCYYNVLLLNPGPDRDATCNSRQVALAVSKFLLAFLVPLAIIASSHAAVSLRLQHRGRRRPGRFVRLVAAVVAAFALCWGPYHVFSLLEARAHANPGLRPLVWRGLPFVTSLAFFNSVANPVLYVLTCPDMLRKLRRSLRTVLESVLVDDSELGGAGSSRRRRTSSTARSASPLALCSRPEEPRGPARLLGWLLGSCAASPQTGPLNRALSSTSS
The series is described as follows: Ligand Binding Assay ([3H]PGD2 SPA, HEK cell membranes). The conditions noted are these: [3H]PGD2 binding to membranes of HEK cells expressing rhCRTh2/Gα16, SPA beads, 2 hours at room temperature. How it is done:
[^3H]PGD2 was purchased from Perkin Elmer Life Sciences with a specific activity of 100-210 Ci/mmol. All other chemicals were of analytical grade.
HEK cells expressing rhCRTh2/Gα16 were routinely maintained in DMEM containing 10% Foetal Bovine Serum (HyClone), 1 mg/ml geneticin, 2 mM L-glutamine and 1% non-essential amino acids. For the preparation of membranes, the adherent transfected HEK cells were grown to confluence in two layer tissue culture factories (Fisher, catalogue number TKT-170-070E). Maximal levels of receptor expression were induced by addition of […] sodium butyrate for the last 18 hours of culture. The adherent cells were washed once with phosphate buffered saline (PBS, 50 ml per cell factory) and detached by the addition of 50 ml per cell factory of ice-cold membrane homogenisation buffer [20 mM HEPES (pH 7.4), 0.1 mM dithiothreitol, 1 mM EDTA, 0.1 mM phenyl methyl sulphonyl fluoride and 100 μg/ml bacitracin]. […] The final pellet was re-suspended in 4 ml of membrane homogenisation buffer per cell factory used and the protein content determined. […]
All assays were performed in Corning clear bottomed, white 96-well NBS plates (Fisher). […] (The optimum coating concentrations were determined for each batch of membranes) The beads were pelleted by centrifugation (800×g for 7 minutes at 4° C.), washed once with assay buffer (50 mM HEPES pH 7.4 containing 5 mM magnesium chloride) and finally re-suspended in assay buffer at a bead concentration of 10 mg/ml.
Each assay contained 20 μl of 6.25 nM [^3H]PGD2, 20 μl membrane saturated SPA beads both in assay buffer and 10 μl of compound solution or 13,14-dihydro-15-keto prostaglandin D2 (DK-PGD2, for determination of non-specific binding, Cayman chemical company). […] The assay plate was incubated at room temperature for 2 hours and counted on a Wallac Microbeta liquid scintillation counter (1 minute per well).

Usually melting point stands for the temperature, or range, at which the solid turns liquid. On to `Cc1c(Sc2cccc(S(C)(=O)=O)c2)c2cc(NS(C)(=O)=O)ccc2n1CC(=O)O` [Example 30, 2-Methyl-5-[(methylsulfonyl)amino]-3-[[3-(methylsulfonyl)phenyl]thio]-1H-indole-1-acetic acid], for which the melting point was 233 to 236 °C.
Regarding `Cc1c(Sc2ccc(S(C)(=O)=O)cc2)c2cc(-c3cncnc3)ccc2n1CC(=O)O` [Example 32], the melting point is greater than 290 °C.
`Cc1c(Sc2ccccc2Cl)c2cc(NS(C)(=O)=O)ccc2n1CC(=O)O` [Example 5, 3-[(2-Chlorophenyl)thio]-2-methyl-5-[(methylsulfonyl)amino]-1H-indole-1-acetic acid] yielded a melting point of 212 °C.
With `Cc1c(Sc2cccc3cccnc23)c2cc(NS(C)(=O)=O)ccc2n1CC(=O)O` [Example 11, 3-[(8-Quinolinyl)thio]-2-methyl-5-[(methylsulfonyl)amino]-1H-indole-1-acetic acid], the melting point was determined as 257 °C.
As a reminder, the IC50 is the concentration needed to halve the response being measured. As for `Cc1c(Sc2ccc(S(C)(=O)=O)cc2)c2c(-c3cccs3)cccc2n1CC(=O)O` [Example 26, 2-Methyl-3-[[4-(methylsulfonyl)phenyl]thio]-4-(2-thiophenyl)-1H-indole-1-acetic acid], the IC50 at rhCRTh2 is 4.47 nM.
With `COc1ccc(Sc2c(C)n(CC(=O)O)c3ccc(NS(C)(=O)=O)cc23)cc1` [Example 9, 3-[(4-Methoxyphenyl)thio]-2-methyl-5-[(methylsulfonyl)amino]-1H-indole-1-acetic acid], the melting point turned out to be 215 °C.
Still for that read-out and setting: under `Cc1c(Sc2ccccc2S(C)(=O)=O)c2cc(NS(C)(=O)=O)ccc2n1CC(=O)O` [Example 31, 2-Methyl-5-[(methylsulfonyl)amino]-3-[[2-(methylsulfonyl)phenyl]thio]-1H-indole-1-acetic acid] stands 227 to 230 °C; under `COc1cccc(Sc2c(C)n(CC(=O)O)c3ccc(NS(C)(=O)=O)cc23)c1` [Example 8, 3-[(3-Methoxyphenyl)thio]-2-methyl-5-[(methylsulfonyl)amino]-1H-indole-1-acetic acid], 292 °C; under `Cc1c(Sc2ccc(Cl)cc2)c2c(NC(=O)c3ccccc3)cccc2n1CC(=O)O` [Example 16, 4-(Benzoylamino)-3-[(4-chlorophenyl)thio]-2-methyl-1H-indole-1-acetic acid], 213 to 215 °C.
Turning to `CCN(C(C)=O)c1cccc2c1c(Sc1ccc(Cl)cc1)c(C)n2CC(=O)O` [Example 14, 4-(Acetylethylamino)-3-[(4-chlorophenyl)thio]-2-methyl-1H-indole-1-acetic acid], the IC50 on rhCRTh2 is 224 nM.
Compound `Cc1noc(C)c1-c1ccc2c(c1)c(Sc1ccc(S(C)(=O)=O)cc1)c(C)n2CC(=O)O` [Example 34, 5-(3,5-Dimethyl-4-isoxazolyl)-2-methyl-3-[[4-(methylsulfonyl)phenyl]thio]-1H-indole-1-acetic acid] had an IC50 at rhCRTh2 of 0.398 nM.
`Cc1c(Sc2ccc(Cl)cc2)c2c(NC(=O)C3CC3)cccc2n1CC(=O)O` [Example 15] registered a melting point of 183 to 185 °C.
In turn, `Cc1c(Sc2ccccc2C(C)C)c2cc(NS(C)(=O)=O)ccc2n1CC(=O)O` [Example 12, 3-[(2-(Methylethyl)phenyl)thio]-2-methyl-5-[(methylsulfonyl)amino]-1H-indole-1-acetic acid] had a melting point of 160 °C.
The compound `Cc1c(Sc2ccc(Cl)cc2)c2cc(NS(C)(=O)=O)ccc2n1CC(=O)O` [Example 7, 3-[(4-Chlorophenyl)thio]-2-methyl-5-[(methylsulfonyl)amino]-1H-indole-1-acetic acid] had a melting point of 214 °C.
As to `Cc1c(Sc2cccc(Cl)c2)c2cc(NS(C)(=O)=O)ccc2n1CC(=O)O` [Example 6, 3-[(3-Chlorophenyl)thio]-2-methyl-5-[(methylsulfonyl)amino]-1H-indole-1-acetic acid], the melting point came to 224 °C.
Consider `Cc1c(Sc2ccccc2C(F)(F)F)c2cc(NS(C)(=O)=O)ccc2n1CC(=O)O` [Example 10, 3-[(2-Trifluoromethylphenyl)thio]-2-methyl-5-[(methylsulfonyl)amino]-1H-indole-1-acetic acid], for which the melting point came to 207 °C.
